In test [1] the test system is Lewis rats, streptococcal cell wall-induced paw edema. The experiment in a line: SCW streptococcal cell wall-induced paw edema. The note with it: 10, 30 and 100 mg/kg q.d. oral gavage for four days beginning on day 21, female Lewis rats. Type of test: in vivo. The procedure: Female Lewis rats (˜150 g) received 6 μg SCW in 10 μl Dulbecco's PBS by an intraarticular injection to the right tibiotalar joint on day 0. On day 21, the recurrence response was initiated with 100 μg SCW (250 μl, i.v.). Vehicle (0.5% hydroxypropylmethylcellulose/0.2% Tween 80) or the compound of Example 1 (4-Cycloheptyloxy-2-morpholin-4-yl-pyrimidine-5-carboxylic acid (2H-tetrazol-5-yl)-amide) was given orally (10 ml/kg volume), q.d., 1 hr prior to SCW, i.v., and on subsequent days. Baseline volumes of the sensitized hind paw were measured by a mercury displacement plethysmometer before disease initiation on day 21, and subtracted from subsequent assessments (made 24 hrs after each dose) to determine the Δ value (the difference between paw volume prior to disease initiation on day 21 and the paw volume 24 hours after each dose). The compound of Example 1 was dosed at 10, 30 and 100 mg/kg q.d. by oral gavage for four days beginning on day 21.

In test [2] the target is T1, p101/p110γ protein (PI3Kγ) (Homo sapiens, UniProt P48736).
T1 construct: HA; made in house; host or cells: Spodoptera frugiperda (Sf9) cells, baculovirus co-infection
T1 sequence (P48736 whole entry, species assumed): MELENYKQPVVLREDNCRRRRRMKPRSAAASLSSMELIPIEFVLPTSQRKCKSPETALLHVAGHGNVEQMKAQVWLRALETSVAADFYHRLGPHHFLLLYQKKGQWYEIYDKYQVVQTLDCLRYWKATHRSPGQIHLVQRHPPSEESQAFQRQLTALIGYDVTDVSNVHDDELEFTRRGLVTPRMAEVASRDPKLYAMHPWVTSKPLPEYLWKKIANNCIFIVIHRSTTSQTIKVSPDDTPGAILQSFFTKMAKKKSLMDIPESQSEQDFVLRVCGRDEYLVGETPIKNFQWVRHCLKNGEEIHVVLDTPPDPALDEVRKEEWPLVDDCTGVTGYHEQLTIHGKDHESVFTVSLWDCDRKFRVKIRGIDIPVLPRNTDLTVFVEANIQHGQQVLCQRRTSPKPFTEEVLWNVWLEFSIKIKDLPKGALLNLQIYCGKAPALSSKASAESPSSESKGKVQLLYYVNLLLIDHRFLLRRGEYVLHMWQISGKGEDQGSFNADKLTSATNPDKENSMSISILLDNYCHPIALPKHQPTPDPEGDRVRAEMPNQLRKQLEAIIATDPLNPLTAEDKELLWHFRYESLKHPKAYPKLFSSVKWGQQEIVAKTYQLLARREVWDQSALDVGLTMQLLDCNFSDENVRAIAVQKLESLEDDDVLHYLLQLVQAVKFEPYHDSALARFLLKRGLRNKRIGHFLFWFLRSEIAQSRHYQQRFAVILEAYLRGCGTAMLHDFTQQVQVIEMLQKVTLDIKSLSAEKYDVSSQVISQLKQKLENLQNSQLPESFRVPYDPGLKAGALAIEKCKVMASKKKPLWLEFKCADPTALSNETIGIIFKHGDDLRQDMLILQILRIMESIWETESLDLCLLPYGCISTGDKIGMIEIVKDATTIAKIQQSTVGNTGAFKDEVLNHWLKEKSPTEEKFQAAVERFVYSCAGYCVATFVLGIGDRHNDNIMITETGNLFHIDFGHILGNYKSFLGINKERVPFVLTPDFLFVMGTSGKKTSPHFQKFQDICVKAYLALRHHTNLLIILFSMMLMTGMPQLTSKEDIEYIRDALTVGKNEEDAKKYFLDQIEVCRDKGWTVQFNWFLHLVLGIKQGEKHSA
T1 sequence (Q8WYR1 whole entry partner, species assumed): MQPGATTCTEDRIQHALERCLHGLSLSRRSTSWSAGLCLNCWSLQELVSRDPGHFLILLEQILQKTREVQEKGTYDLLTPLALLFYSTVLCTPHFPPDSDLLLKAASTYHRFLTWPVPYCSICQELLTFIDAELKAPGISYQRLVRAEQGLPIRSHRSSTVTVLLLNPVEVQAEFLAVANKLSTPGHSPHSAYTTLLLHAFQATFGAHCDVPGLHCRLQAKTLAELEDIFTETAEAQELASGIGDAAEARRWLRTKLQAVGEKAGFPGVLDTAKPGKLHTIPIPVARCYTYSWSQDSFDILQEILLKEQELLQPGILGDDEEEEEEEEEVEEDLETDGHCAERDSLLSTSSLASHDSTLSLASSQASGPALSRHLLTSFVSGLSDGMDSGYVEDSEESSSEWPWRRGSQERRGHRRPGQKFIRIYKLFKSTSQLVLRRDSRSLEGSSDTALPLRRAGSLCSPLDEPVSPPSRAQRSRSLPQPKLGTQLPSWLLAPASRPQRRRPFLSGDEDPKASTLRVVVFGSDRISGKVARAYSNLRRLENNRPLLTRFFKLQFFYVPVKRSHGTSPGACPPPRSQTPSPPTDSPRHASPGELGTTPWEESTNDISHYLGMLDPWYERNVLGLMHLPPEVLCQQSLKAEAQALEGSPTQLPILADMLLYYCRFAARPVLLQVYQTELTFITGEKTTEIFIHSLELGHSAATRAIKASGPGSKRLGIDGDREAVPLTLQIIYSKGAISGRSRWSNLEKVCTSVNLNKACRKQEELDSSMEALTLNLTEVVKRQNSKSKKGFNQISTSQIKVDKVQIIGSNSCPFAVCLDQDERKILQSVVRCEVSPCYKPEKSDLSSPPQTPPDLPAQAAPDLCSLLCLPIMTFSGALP
The experiment in a line: PI3Kγ in vitro kinase assay. It is filed as biochemical. The note with it: purified recombinant p101/p110γ with G protein β1/γ2 subunits, 20 μM ATP, PIP2 lipid micelles. The procedure: Spodtera frugiperda cells, grown in ESF921 media, were co-infected with baculovirus expressing a glu-tagged p101 and baculovirus expressing an HA-tagged p110γ, at a 3:1 ratio of p101 baculovirus to p110γ baculovirus. Sf9 cells were grown to 1×10^7 total cells/mL in 10 L bioreactors and harvested 48-72 hours post infection. Samples of infected cells were then tested for expression of p101/p110γ PI3 kinase by immunoprecipitation and Western Blot analysis methods (see below).
To purify PI3Kγ, 4 volumes of room temperature hypotonic lysis buffer (1 mM MgCl2, 1 mM DTT, 5 mM EGTA, 1 mM Pefabloc, 0.5 μM aprotinin, 5 μM leupeptin, 2 μM pepstatin, 5 μM E64, pH 8) per gram of cell paste, was poured onto frozen cell pellets with stirring, then lysed in a nitrogen “bomb” at 400 psi (599HC T316, Parr Instrument Co, Moline, Ill.). NaCl was added to 150 mM, and sodium cholate was added to 1% and mixed for another 45 minutes. The lysates were clarified by centrifugation for 25 minutes at 14,000 rpm. The lysates were then loaded over anti-glu-linked Protein-G Sepaharose beads (Covance Research Products, Richmond, Calif.) using 20 mL resin/50 g cell paste. The column was washed with 15 volumes of wash buffer (1 mM DTT, 0.2 mM EGTA, 1 mM Pefabloc, 0.5 μM aprotinin, 5 μM leupeptin, 2 μM pepstatin, 5 μM E64, 150 mM NaCl, 1% sodium cholate, pH 8). PI3Kγ was eluted with 6 column volumes of wash buffer that contain 100 μg/mL of a peptide that competes for binding of the glu tag. The column fractions with the eluted protein (determined by taking OD280 readings) were collected and dialyzed in 0.2 mM EGTA, 1 mM DTT, 1 mM Pefabloc, 5 μM leupeptin, 0.5% sodium cholate, 150 mM NaCl, and 50% glycerol, pH 8. The fractions were stored at −80° C. until further use.
Spodtera frugiperda cells were coinfected with baculovirus expressing a glu-tagged G protein β1 and baculovirus expressing a G protein […], at a 1:1 ratio of glu-tagged G protein […] baculovirus to G protein β2 baculovirus. Sf9 cells are grown in 10 L bioreactors and harvested 48-72 hours post infection. Samples of infected cells were tested for G protein β1/β2 expression by Western Blot analysis, as described below. Cell lysates were homogenized and loaded onto a column of glu-tagged beads as in Biological Example 1 and competed off the column with a glu peptide and processed as described in Biological Example 1.
The inhibitory properties of the compounds in Table 1 were assayed in an in vitro PI3K assay. In a 96-well polypropylene plate, each well was spotted with 2 μL of 50 times the desired final concentration of compound in DMSO. Purified recombinant p101/p110γ protein (0.03 μg; ˜2.7 nM) and G protein β1/γ2 subunits (0.09 μg; ˜57.7 nM) for each reaction was combined in the assay buffer (30 mM HEPES, 100 mM NaCl, 1 mM EGTA, and 1 mM DTT). ATP and [γ-^32P-ATP] (0.09 μCi) were added to this mixture so that the final ATP concentration in the reaction was 20 μM. Lipid micelles were formed by sonicating phosphatidylinositol-4,5-diphosphate (PIP2), phosphatidylethanolamine (PE), and Na-cholate in the assay buffer for 10 minutes, adding MgCl2 and incubating on ice for 20 minutes, for final concentrations of 25 μM PIP2, 300 μM PE, 0.02% Na-cholate, and 10 mM MgCl2 in the reaction. The reactions were started by adding equal volumes lipid and enzyme mixture in a total volume of 50 μL, allowed to run for 20 minutes at room temperature, and stopped with 100 μL 75 mM H3PO4. The lipid product was transferred to a glass fiber filter plate and washed with 75 mM H3PO4 several times. The presence of radioactive lipid product (PIP3) was measured by adding Wallac Optiphase mix to each well and counting in a Wallac 1450 Trilux plate reader (PerkinElmer Life Sciences Inc., Boston, Mass. 02118). The IC50 for each compound tested is reported in μM in the Tables above.

Test [3] has as its system DBA/1 LacJ mice, collagen induced arthritis. Put plainly: Murine collagen induced arthritis. Type of test: in vivo. The note with it: 30 mg/kg q.d. oral gavage for two weeks beginning on day 27, female DBA/1 LacJ mice. The procedure:
Bovine type II collagen (University of Utah) was diluted with 0.01N acetic acid to a concentration of 2 mg/mL and emulsified with an equal volume of Freund's complete adjuvant (Difco, Detroit, Mich.) supplemented with 1 mg/mL Mycobacterium tuberculosis Hra37. Age-matched (8-12 weeks) female DBA/1 LacJ mice (Jackson Laboratories, Bar Harbor, Me.) were immunized with 100 μL of emulsion (100 μg collagen) intradermally at the base of the tail. On Day 28 after immunization, the mice were given 50 μg Lipopolysaccharide (Sigma Aldrich, St Louis, Mo.) intraperitoneally (IP) in 100 μL saline. The compound of Example 1 (4-Cycloheptyloxy-2-morpholin-4-yl-pyrimidine-5-carboxylic acid (2H-tetrazol-5-yl)-amide) was dosed at 30 mg/kg q.d. by oral gavage for two weeks beginning on day 27. The development of arthritis was assessed on Days 27, 31, 34, 37, and 41. A clinical score was given to each limb using the following scale: (0) normal, (1) erythema and edema, (2) joint distortion, (3) joint ankylosis. Edema measurements on front paws, rear paws, and ankles were taken using constant tension calipers (Dyer, Lancaster, Pa.). The compound of Example 1 at 30 mg/kg q.d. inhibited paw edema in this model by 52%, and clinical score by 35%.

The structures appear in SMILES notation.

With `O=C(Nc1nn[nH]n1)c1cnc(N2CCOCC2)nc1OC1CCCCCC1` [Example 1, 4-Cycloheptyloxy-2-morpholin-4-yl-pyrimidine-5-carboxylic acid (2H-tetrazol-5-yl)-amide], the “ID50 for inhibition of paw edema” value in test [1] is recorded as 16.3 mg/kg. Besides, the IC50 in test [2] was 197 nM. Moreover, in test [3], the “inhibition of clinical score” value was determined as 35% and the “inhibition of paw edema” value turned out to be 52%.
Consider `CC(C)(C)COc1nc(N2CCOCC2)ncc1C(=O)Nc1nn[nH]n1` [Example 13, 4-(2,2-Dimethyl-propoxy)-2-morpholin-4-yl-pyrimidine-5-carboxylic acid (2H-tetrazol-5-yl)-amide], for which, in test [2], the IC50 worked out at 2060 nM.
On the same count and under the same terms, to `O=C(Nc1nn[nH]n1)c1cnc(N2CCOCC2)nc1OC1CC2CCC1C2` (stereo not shown) [Example 12, 4-(Bicyclo[2.2.1]hept-2-yloxy)-2-morpholin-4-yl-pyrimidine-5-carboxylic acid (2H-tetrazol-5-yl)-amide] belongs 845 nM; to `CC(C)c1ccc(Oc2nc(N3CCOCC3)ncc2C(=O)Nc2nn[nH]n2)cc1` [Example 17, 4-(4-Isopropyl-phenoxy)-2-morpholin-4-yl-pyrimidine-5-carboxylic acid (2H-tetrazol-5-yl)-amide], 805 nM.
In the case of `O=C(Nc1nn[nH]n1)c1cnc(N2CCOCC2)nc1OC1CCOCC1` [Example 10, 2-Morpholin-4-yl-4-(tetrahydro-pyran-4-yloxy)-pyrimidine-5-carboxylic acid (2H-tetrazol-5-yl)-amide], the IC50 in test [2] was found to be 10500 nM.
As to `CC1CC(C)CC(Oc2nc(N3CCOCC3)ncc2C(=O)Nc2nn[nH]n2)C1` (stereo not shown) [Example 16, 4-(3,5-Dimethyl-cyclohexyloxy)-2-morpholin-4-yl-pyrimidine-5-carboxylic acid (2H-tetrazol-5-yl)-amide], the IC50 in test [2] stood at 210 nM.
`O=C(Nc1nn[nH]n1)c1cnc(N2CCOCC2)nc1Oc1ccc(C2CCCCC2)cc1` [Example 18, 4-(4-Cyclohexyl-phenoxy)-2-morpholin-4-yl-pyrimidine-5-carboxylic acid (2H-tetrazol-5-yl)-amide]: in test [2], the half-inhibitory concentration (IC50) came out at 154 nM.

What is called IC50 is the concentration that gives 50% inhibition.
